According to ChEMBL document CHEMBL4359898, “Pyrazolo-benzothiazole hybrids: Synthesis, anticancer properties and evaluation of antiangiogenic activity using in vitro VEGFR-2 kinase and in vivo transgenic zebrafish model” (Eur J Med Chem, 2019):

Legend:
HT-29 = assay: Cytotoxicity against human HT-29 cells assessed as reduction in cell viability incubated for 72 hrs by MTT assay; settings: HT-29, 72 h
PC-3 = assay: Cytotoxicity against human PC3 cells assessed as reduction in cell viability incubated for 72 hrs by MTT assay; settings: PC-3, 72 h
A549 = assay: Cytotoxicity against human A549 cells assessed as reduction in cell viability incubated for 72 hrs by MTT assay; settings: A549, 72 h
U-87 MG = assay: Cytotoxicity against human U87MG cells assessed as reduction in cell viability incubated for 72 hrs by MTT assay
HEK-293T = assay: Cytotoxicity against HEK293T cells assessed as reduction in cell viability incubated for 72 hrs by MTT assay; settings: Homo sapiens

Row | Compound | IC50 (HT-29) [µM] | IC50 (PC-3) [µM] | IC50 (A549) [µM] | IC50 (U-87 MG) [µM] | IC50 (HEK-293T) [µM]
1 | COc1ccc2nc(NC(=O)c3cn(-c4ccccc4)nc3-c3ccc(Cl)cc3)sc2c1 | 18.6 | 29.3 | 31.4 | 21.2 | 29.6
2 | O=C(Nc1nc2ccc(Cl)cc2s1)c1cn(-c2ccccc2)nc1-c1ccc(Cl)cc1 | 4.55 | 3.23 | 4.36 | 5.87 | 15.7
3 | COc1ccc(-c2nn(-c3ccccc3)cc2C(=O)Nc2nc3ccc(C)cc3s2)cc1 | 21.5 | 15.9 | 27.7 | > 50 | > 50
4 | Cc1ccc2nc(NC(=O)c3cn(-c4ccccc4)nc3-c3ccc(F)cc3)sc2c1 | 22.9 | 20.5 | 24.6 | > 50 | > 50
5 | O=C(Nc1nc2ccc(F)cc2s1)c1cn(-c2ccccc2)nc1-c1ccc(F)cc1 | 4.16 | 5.26 | 6.65 | 12.5 | 16.7
6 | O=C(Nc1nc2ccccc2s1)c1cn(-c2ccccc2)nc1-c1ccc(F)cc1 | 9.06 | 7.13 | 9.01 | 10.7 | 33.4
7 | Cc1ccc2nc(NC(=O)c3cn(-c4ccccc4)nc3-c3ccc(Cl)cc3)sc2c1 | 23.7 | 14.5 | 18.6 | 33.2 | 35.6
8 | COc1ccc(-c2nn(-c3ccccc3)cc2C(=O)Nc2nc3ccccc3s2)cc1 | 10.5 | 6.67 | 13.7 | 11.5 | 18.9
9 | COc1ccc2nc(NC(=O)c3cn(-c4ccccc4)nc3-c3ccc(F)cc3)sc2c1 | 33.2 | 12.8 | > 50 | > 50 | > 50
10 | COc1ccc(-c2nn(-c3ccccc3)cc2C(=O)Nc2nc3ccc(OC)cc3s2)cc1 | > 50 | 13.5 | 18.9 | 5.89 | > 50
